Experiments:
[1] = tested on: H2009 tumor-bearing SCID mice; experiment: biokinetics from 90-min dynamic PET scans; details: mouse, in vivo
Source text: All animal studies have been performed in accordance with general animal welfare regulations in Germany and the institutional guidelines for the care and use of animals. H2009 human lung adenocarcinoma cells (CRL-5911; American Type Culture Collection) were cultivated as recommended by the distributor. To generate tumor xenografts, 6- to 8-week-old female CB17 SCID mice (Charles River) were inoculated with 10^7 H2009 cells in Matrigel (CultrexBME, type 3 PathClear; Trevigen, GENTAUR GmbH). Mice were used for biodistribution or PET studies when tumors had grown to a diameter of 10-12 mm (4-6 weeks after inoculation).
Mice were anaesthetized with isoflurane for intravenous administration of the radiolabeled compounds. The administered activity per mouse ranged between 10 and 15 MBq (100-200 pmol, depending on variations in timing of production and administration). PET imaging was performed on a Siemens Inveon small-animal PET system, either dynamic under isoflurane anaesthesia for 90 min, or as single frames 75 min p.i. with an acquisition time of 20 min. Data were reconstructed using Siemens Inveon Research Workspace software, employing a three-dimensional ordered subset expectation maximum (OSEM3D) algorithm without scatter and attenuation correction. For kinetic analyses, regions of interest (ROIs) were defined manually.

αvβ6-integrin = αvβ6-integrin (Homo sapiens, UniProt P06756+P18564); details: cited from earlier work
αvβ3 = αvβ3 (Homo sapiens, UniProt P05106+P06756); details: cited from earlier work
α5β1 = α5β1 (Homo sapiens, UniProt P05556+P08648); details: cited from earlier work
αvβ5 = αvβ5 (Homo sapiens, UniProt P06756+P18084); details: cited from earlier work
αIIbβ3 = αIIbβ3 (Homo sapiens, UniProt P05106+P08514); details: cited from earlier work
[2] = up to 3 h; cited from earlier work

Chain of α5β1 (P08648 42-995 limits assumed): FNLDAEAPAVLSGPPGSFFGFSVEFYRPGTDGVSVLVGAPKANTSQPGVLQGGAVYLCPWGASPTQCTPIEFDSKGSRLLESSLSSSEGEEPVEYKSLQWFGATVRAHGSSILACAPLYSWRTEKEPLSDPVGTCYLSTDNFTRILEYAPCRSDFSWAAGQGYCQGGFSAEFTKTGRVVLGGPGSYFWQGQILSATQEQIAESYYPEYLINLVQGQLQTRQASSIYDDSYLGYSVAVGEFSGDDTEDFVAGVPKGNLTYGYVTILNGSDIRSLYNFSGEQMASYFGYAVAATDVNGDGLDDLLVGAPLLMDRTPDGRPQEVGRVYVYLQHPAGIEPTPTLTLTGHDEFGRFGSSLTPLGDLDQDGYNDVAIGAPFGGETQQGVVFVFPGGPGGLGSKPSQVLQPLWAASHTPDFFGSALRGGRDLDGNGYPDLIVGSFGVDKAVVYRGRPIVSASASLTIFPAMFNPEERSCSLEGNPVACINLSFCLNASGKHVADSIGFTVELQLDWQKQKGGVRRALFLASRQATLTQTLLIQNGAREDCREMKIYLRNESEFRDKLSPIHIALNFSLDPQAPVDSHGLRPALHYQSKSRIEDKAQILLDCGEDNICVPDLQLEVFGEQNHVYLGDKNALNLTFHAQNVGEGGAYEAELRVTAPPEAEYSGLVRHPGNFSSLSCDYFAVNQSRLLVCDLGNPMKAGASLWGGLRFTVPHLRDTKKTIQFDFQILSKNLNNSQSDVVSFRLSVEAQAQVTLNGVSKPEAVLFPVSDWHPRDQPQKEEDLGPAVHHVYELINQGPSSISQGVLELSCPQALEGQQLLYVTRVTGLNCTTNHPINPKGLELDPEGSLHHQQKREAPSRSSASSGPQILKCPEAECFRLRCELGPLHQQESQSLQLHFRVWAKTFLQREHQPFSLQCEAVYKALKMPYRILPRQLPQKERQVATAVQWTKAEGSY
Chain of α5β1 (P05556 21-728 limits assumed): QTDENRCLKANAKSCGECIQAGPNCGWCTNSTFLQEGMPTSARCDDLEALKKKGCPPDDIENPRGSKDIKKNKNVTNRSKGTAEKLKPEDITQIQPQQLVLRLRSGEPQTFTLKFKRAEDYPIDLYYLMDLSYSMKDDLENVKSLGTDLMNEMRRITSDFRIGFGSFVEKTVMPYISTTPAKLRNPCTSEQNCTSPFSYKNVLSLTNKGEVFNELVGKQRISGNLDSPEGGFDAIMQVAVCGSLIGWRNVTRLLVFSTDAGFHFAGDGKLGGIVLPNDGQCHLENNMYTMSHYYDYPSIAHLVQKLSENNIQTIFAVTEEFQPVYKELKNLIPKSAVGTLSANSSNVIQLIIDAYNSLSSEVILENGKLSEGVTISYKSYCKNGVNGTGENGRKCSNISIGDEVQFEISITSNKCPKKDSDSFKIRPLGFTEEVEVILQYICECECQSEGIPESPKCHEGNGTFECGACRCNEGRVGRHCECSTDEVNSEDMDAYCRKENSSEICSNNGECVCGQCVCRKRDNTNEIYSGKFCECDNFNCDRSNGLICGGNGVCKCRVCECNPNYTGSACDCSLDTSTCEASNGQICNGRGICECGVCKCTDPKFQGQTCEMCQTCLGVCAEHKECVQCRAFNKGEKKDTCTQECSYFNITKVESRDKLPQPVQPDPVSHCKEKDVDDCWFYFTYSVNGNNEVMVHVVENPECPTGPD
Chain of αvβ6-integrin (P06756 31-992 limits assumed): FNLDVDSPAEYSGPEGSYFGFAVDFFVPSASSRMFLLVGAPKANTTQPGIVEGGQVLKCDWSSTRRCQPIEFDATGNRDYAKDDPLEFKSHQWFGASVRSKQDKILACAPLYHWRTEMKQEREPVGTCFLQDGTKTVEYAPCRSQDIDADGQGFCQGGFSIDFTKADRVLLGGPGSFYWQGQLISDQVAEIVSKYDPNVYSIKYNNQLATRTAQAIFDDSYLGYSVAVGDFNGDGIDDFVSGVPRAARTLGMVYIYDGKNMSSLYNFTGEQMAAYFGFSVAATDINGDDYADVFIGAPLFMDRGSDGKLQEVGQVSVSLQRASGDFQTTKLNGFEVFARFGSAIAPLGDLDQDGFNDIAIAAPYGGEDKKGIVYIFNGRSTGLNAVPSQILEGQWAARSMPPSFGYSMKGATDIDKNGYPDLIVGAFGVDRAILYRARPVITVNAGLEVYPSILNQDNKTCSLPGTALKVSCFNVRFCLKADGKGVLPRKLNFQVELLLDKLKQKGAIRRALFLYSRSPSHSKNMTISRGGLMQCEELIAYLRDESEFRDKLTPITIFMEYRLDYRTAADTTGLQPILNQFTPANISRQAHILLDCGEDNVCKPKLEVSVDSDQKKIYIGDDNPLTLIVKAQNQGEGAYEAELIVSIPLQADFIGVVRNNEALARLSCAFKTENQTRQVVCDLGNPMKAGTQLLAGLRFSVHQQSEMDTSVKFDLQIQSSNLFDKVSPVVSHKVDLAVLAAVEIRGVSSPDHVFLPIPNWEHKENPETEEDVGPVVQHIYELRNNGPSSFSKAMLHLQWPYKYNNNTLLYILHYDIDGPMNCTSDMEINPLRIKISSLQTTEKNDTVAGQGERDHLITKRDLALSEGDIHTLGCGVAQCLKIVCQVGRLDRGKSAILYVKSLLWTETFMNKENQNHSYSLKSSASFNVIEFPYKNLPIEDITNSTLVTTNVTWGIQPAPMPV
Chain of αvβ6-integrin (P18564 22-707 limits assumed): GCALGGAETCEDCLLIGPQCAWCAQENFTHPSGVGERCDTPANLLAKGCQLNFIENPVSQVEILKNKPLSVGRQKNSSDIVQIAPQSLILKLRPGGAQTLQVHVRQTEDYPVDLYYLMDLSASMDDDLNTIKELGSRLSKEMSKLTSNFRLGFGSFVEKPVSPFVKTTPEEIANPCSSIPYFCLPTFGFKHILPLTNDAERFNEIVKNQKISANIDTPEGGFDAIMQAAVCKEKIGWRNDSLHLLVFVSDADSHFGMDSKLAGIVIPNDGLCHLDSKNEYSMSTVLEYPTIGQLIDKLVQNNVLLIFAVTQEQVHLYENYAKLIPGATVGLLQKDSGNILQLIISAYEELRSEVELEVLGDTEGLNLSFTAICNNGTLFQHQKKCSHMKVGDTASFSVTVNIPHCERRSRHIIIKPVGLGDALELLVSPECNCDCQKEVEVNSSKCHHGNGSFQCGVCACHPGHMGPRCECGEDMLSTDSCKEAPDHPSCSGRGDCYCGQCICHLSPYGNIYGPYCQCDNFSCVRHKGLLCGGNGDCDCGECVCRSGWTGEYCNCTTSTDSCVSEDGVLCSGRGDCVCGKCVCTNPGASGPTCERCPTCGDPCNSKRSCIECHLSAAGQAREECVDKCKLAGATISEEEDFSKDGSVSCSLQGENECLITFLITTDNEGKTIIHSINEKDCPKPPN
Chain of αvβ3 (P06756 31-992 limits assumed): as the sequence (P06756 31-992 limits assumed) above
Chain of αvβ3 (P05106 27-718 limits assumed): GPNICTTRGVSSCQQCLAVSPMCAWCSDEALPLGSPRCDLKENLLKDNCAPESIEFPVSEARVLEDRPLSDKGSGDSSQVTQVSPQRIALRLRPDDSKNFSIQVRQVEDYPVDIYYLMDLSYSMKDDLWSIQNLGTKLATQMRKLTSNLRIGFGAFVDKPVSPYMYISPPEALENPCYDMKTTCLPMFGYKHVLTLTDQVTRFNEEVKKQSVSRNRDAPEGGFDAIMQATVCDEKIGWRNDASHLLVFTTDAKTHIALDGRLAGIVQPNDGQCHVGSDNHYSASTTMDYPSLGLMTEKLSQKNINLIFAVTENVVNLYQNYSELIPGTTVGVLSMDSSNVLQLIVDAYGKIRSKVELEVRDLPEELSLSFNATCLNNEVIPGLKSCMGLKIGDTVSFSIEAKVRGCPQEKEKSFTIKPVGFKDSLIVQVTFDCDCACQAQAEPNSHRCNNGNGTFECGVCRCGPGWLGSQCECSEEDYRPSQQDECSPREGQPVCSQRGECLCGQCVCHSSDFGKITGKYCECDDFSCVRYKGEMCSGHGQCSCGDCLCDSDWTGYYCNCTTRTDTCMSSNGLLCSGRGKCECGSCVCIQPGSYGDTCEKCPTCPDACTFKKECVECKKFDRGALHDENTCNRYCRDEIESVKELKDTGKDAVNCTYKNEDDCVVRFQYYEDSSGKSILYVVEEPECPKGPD

Row | Compound | clearance from the blood pool [1] | affinity to αvβ6-integrin (αvβ6-integrin) [nM] | affinity αvβ3 (selectivity against other integrins) (αvβ3) [nM] | affinity α5β1 (selectivity against other integrins) (α5β1) [nM] | affinity αvβ5 (selectivity against other integrins) (αvβ5) [µM] | affinity αIIbβ3 (selectivity against other integrins) (αIIbβ3) [µM] | stability in human plasma [2]
1 | CC(C)C[C@@H]1NC(=O)[C@H](CC(=O)O)NC(=O)CNC(=O)[C@H](CCCNC(=N)N)NC(=O)[C@H](Cc2ccc(O)cc2)NC(=O)[C@H](CCCCNC(=O)CCc2cn(CCCNC(=O)CCP(=O)(O)CN3CCN(CP(=O)(O)CCC(=O)NCCCn4cc(CCC(=O)NCCCC[C@H]5C(=O)N[C@@H](Cc6ccc(O)cc6)C(=O)N[C@@H](CCCNC(=N)N)C(=O)NCC(=O)N[C@@H](CC(=O)O)C(=O)N[C@@H](CC(C)C)C(=O)N[C@@H](C)C(=O)N[C@@H](Cc6ccccc6)C(=O)N6CCC[C@@H]6C(=O)N5C)nn4)CCN(CP(=O)(O)CCC(=O)NCCCn4cc(CCC(=O)NCCCC[C@H]5C(=O)N[C@@H](Cc6ccc(O)cc6)C(=O)N[C@@H](CCCNC(=N)N)C(=O)NCC(=O)N[C@@H](CC(=O)O)C(=O)N[C@@H](CC(C)C)C(=O)N[C@@H](C)C(=O)N[C@@H](Cc6ccccc6)C(=O)N6CCC[C@@H]6C(=O)N5C)nn4)CC3)nn2)N(C)C(=O)[C@H]2CCCN2C(=O)[C@H](Cc2ccccc2)NC(=O)[C@H](C)NC1=O [Ga-68-C-9, metal not drawn] | much faster than that of Ga-68-TRAP(Phe2)3 |  |  |  |  |  | 
2 | cyclo(FRGDLAFp(NMe)K) [Phe2] |  | 0.26 | 632 | 73 | > 1 | > 1 | full stability

— patent US20230173113A1, “CYCLIC PEPTIDES AND THEIR CONJUGATES FOR ADDRESSING ALPHA-V-BETA-6 INTEGRIN IN VIVO” (Technische Universität München, priority 2020, published 2023)
